Test results reported in patent US10780082B2, “Macrocycle and composition comprising thereof” (Shenzhen TargetRx, Inc., priority 2016, dated 2020).

Tested on: BaF3-NPM-ALK cells
Test: Cytotoxicity experiment, ALK WT cells
Assay type: cell-based, murine
Details: two days incubation
Method: The cell line that can be used in the assay is Ba/F3, a murine pro-B cell line that has been stably transfected with the expression vector pClneo™ (Promega Corp., Madison Wis.) encoding NPM-ALK and subsequently G418-resistent cells were selected. The inhibitory activity of the compounds of Formula I can be determined as follows: BaF3-NPM-ALK cells (15000/well in a microtiter plate) were transferred to a 96-well microtiter plate. Test compounds (dissolved in DMSO) were then added in a series of concentrations (serial dilutions) with a final concentration of DMSO not exceeding 1% (v/v). […] The cell lysis was completed at room temperature within 60 minutes and the amount of Yopro bound to the DNA was determined by measurement using, for example, a CytoFluor II 96-well reader (PerSeptive Biosystems). IC50 can be determined by computer aided system using the following formula: IC50=[(ABS test−ABS start)/(ABS control−ABS start)]×100 wherein ABS was absorption.

Structure (SMILES)	IC50 [nM]
CC1Oc2cc(cnc2N)-c2c(nn(C)c2C#N)CN(C)C(=O)c2ccc(F)cc21 (racemic) [Compound 45]	< 1
CC1Oc2cc(cnc2N)-c2c(nn(C)c2C#N)CN(C)C(=O)c2ccc(F)cc21 (racemic) [Compound 72]	< 1
C[C@H]1Oc2cc(cnc2N)-c2c(nn(C)c2C#N)CN(C)C(=O)c2ccc(F)cc21 [PF-06463922, reference compound]	< 1
CC1Oc2cc(cnc2N)-c2c(nn(C)c2C#N)CN(C)C(=O)c2ccc(F)cc21 (single isomer, unassigned) [Compound 18]	< 1
CC1Oc2cc(cnc2N)-c2c(nn(C)c2C#N)CN(C)C(=O)c2ccc(F)cc21 (racemic) [Compound 58]	< 1
CC1Oc2cc(cnc2N)-c2c(nn(C)c2C#N)CN(C)C(=O)c2ccc(F)cc21 (racemic) [Compound 28]	< 1
CC1Oc2cc(cnc2N)-c2c(nn(C)c2C#N)CN(C)C(=O)c2ccc(F)cc21 (racemic) [Compound 76]	< 1
